Test system: MCF7
Assay: Induction of apoptosis in human MCF7 cells assessed as total apoptotic cells at IC50 after 48 hrs by Annexin V-FITC/propidium iodide staining based flow cytometric analysis (reference value: 1.84 %)
Assay type: functional
Conditions: not given

Compound | Activity [%]
COc1ccc(-c2nc3c(c(-c4ccccc4)nn3-c3ccccc3)c(-c3ccc(N4CCOCC4)cc3)c2C#N)cc1 | 24.4
COc1ccc(C(=O)C=CNc2cc(-c3ccccc3)nn2-c2ccccc2)cc1 | 36.51

Test system: not listed separately
Assay: Selectivity index, ratio of CC50 for human THLE2 cells to IC50 for human HepG2 cells
Assay type: toxicity
Conditions: THLE2 cells and HepG2 cells, read-out: Ratio CC50/IC50

Compound | selectivity ratio
c1ccc(-c2ccnc3c2c(-c2ccccc2)nn3-c2ccccc2)cc1 | 10.7
COc1ccc(C(=O)C=CNc2cc(-c3ccccc3)nn2-c2ccccc2)cc1 | 17.3

Target: Cyclin-dependent kinase 1/cyclin B1 (Homo sapiens, UniProt P06493)
Sequence (P06493 whole entry): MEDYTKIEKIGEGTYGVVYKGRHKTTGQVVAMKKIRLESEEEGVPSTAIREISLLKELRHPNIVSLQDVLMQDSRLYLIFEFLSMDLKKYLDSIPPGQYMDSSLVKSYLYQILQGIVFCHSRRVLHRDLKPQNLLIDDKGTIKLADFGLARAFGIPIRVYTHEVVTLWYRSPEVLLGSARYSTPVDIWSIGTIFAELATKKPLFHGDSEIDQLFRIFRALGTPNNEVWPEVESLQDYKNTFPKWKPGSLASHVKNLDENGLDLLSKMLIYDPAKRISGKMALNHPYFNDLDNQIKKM
Sequence (P14635 whole entry, further chain): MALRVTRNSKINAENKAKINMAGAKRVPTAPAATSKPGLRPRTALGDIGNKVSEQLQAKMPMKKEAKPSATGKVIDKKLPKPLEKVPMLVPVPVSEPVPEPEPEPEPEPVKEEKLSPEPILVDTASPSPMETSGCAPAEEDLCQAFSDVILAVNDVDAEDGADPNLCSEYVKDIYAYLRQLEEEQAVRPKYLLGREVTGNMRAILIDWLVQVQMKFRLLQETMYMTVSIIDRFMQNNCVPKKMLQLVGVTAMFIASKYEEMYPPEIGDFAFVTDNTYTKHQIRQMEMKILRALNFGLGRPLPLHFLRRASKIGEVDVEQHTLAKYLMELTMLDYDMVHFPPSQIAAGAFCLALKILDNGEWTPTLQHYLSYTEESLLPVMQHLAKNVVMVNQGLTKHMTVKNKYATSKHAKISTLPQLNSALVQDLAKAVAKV
Assay: Inhibition of CDK1/cyclin B (unknown origin)
Assay type: protein-complex assay
Conditions: not given

Compound | IC50 [nM] | Ki [nM]
COc1ccc(-c2nc3c(c(-c4ccccc4)nn3-c3ccccc3)c(-c3ccc(N4CCOCC4)cc3)c2C#N)cc1 | 718 | 437
COc1ccc(C(=O)C=CNc2cc(-c3ccccc3)nn2-c2ccccc2)cc1 | 955 | 581

Test system: not listed separately
Assay: Selectivity index, ratio of CC50 for human MCF10A cells to IC50 for human MCF7 cells
Assay type: toxicity
Conditions: MCF10A cells and MCF7 cells, read-out: Ratio CC50/IC50

Compound | selectivity ratio
COc1ccc(-c2nc3c(c(-c4ccccc4)nn3-c3ccccc3)c(-c3ccc(N4CCOCC4)cc3)c2C#N)cc1 | 59.9
COc1ccc(C(=O)C=CNc2cc(-c3ccccc3)nn2-c2ccccc2)cc1 | 13.1

Test system: not listed separately
Assay: Cytotoxicity against human THLE2 cells assessed as reduction in cell viability by MTT assay
Assay type: cell-based, THLE-2
Conditions: not given

Compound | CC50 [nM]
c1ccc(-c2ccnc3c2c(-c2ccccc2)nn3-c2ccccc2)cc1 | 34200
COc1ccc(C(=O)C=CNc2cc(-c3ccccc3)nn2-c2ccccc2)cc1 | 35200

Test system: MCF7
Assay: Induction of apoptosis in human MCF7 cells assessed as late apoptotic cells at IC50 after 48 hrs by Annexin V-FITC/propidium iodide staining based flow cytometric analysis (reference value: 0.28 %)
Assay type: functional
Conditions: not given

Compound | Activity [%]
COc1ccc(-c2nc3c(c(-c4ccccc4)nn3-c3ccccc3)c(-c3ccc(N4CCOCC4)cc3)c2C#N)cc1 | 9.86
COc1ccc(C(=O)C=CNc2cc(-c3ccccc3)nn2-c2ccccc2)cc1 | 20.64

Target: Cyclin-dependent kinase 7/ cyclin H (Homo sapiens, UniProt P50613)
Sequence (P51946 whole entry): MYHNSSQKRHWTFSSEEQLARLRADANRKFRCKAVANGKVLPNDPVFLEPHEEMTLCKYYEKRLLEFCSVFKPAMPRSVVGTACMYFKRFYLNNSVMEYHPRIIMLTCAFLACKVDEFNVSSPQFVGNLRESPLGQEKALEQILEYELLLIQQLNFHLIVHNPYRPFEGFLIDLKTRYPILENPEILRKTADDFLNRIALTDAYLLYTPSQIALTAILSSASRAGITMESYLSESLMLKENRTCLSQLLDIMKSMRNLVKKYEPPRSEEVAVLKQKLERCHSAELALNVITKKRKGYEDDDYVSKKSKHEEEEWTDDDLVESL
Sequence (P50613 whole entry): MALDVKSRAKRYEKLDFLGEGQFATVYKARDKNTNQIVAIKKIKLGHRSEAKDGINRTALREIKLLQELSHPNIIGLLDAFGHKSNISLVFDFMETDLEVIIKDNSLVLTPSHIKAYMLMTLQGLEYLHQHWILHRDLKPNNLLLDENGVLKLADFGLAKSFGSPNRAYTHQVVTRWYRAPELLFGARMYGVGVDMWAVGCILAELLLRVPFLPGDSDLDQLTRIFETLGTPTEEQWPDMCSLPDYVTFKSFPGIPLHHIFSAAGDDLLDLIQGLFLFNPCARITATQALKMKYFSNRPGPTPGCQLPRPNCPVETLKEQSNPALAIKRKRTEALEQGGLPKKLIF
Assay: Inhibition of CDK7/cyclin H (unknown origin)
Assay type: protein-complex assay
Conditions: not given

Compound | IC50 [nM] | Ki [nM]
COc1ccc(-c2nc3c(c(-c4ccccc4)nn3-c3ccccc3)c(-c3ccc(N4CCOCC4)cc3)c2C#N)cc1 | 318 | 203
COc1ccc(C(=O)C=CNc2cc(-c3ccccc3)nn2-c2ccccc2)cc1 | 326 | 208

Test system: MCF7
Assay: Antiproliferative activity against human MCF7 cells assessed as inhibition of cell growth after 48 hrs by MTT assay
Assay type: functional, cell-based
Conditions: MCF7, 48 h

Compound | IC50 [nM]
c1ccc(-c2ccnc3c2c(-c2ccccc2)nn3-c2ccccc2)cc1 | 28200
COc1ccc(-c2nc3c(c(-c4ccccc4)nn3-c3ccccc3)c(-c3ccc(N4CCOCC4)cc3)c2C#N)cc1 | 930
COc1ccc(C(=O)C=CNc2cc(-c3ccccc3)nn2-c2ccccc2)cc1 | 1290

Test system: not listed separately
Assay: Cytotoxicity against human MCF10A cells assessed as reduction in cell viability by MTT assay
Assay type: cell-based, MCF-10A
Conditions: not given

Compound | CC50 [nM]
COc1ccc(-c2nc3c(c(-c4ccccc4)nn3-c3ccccc3)c(-c3ccc(N4CCOCC4)cc3)c2C#N)cc1 | 55700
COc1ccc(C(=O)C=CNc2cc(-c3ccccc3)nn2-c2ccccc2)cc1 | 16900

Test system: MCF7
Assay: Induction of cell cycle arrest in human MCF7 cells assessed as accumulation at pre-G1 phase at IC50 after 48 hrs by propidium iodide staining based Flow cytometric analysis (reference value: 1.84%)
Assay type: functional
Conditions: not given

Compound | Activity [%]
COc1ccc(-c2nc3c(c(-c4ccccc4)nn3-c3ccccc3)c(-c3ccc(N4CCOCC4)cc3)c2C#N)cc1 | 24.36
COc1ccc(C(=O)C=CNc2cc(-c3ccccc3)nn2-c2ccccc2)cc1 | 36.51

Test system: MCF7
Assay: Induction of apoptosis in human MCF7 cells assessed as early apoptotic cells at IC50 after 48 hrs by Annexin V-FITC/propidium iodide staining based flow cytometric analysis (reference value: 0.57 %)
Assay type: functional
Conditions: not given

Compound | Activity [%]
COc1ccc(-c2nc3c(c(-c4ccccc4)nn3-c3ccccc3)c(-c3ccc(N4CCOCC4)cc3)c2C#N)cc1 | 9.36
COc1ccc(C(=O)C=CNc2cc(-c3ccccc3)nn2-c2ccccc2)cc1 | 2.69

Test system: MCF7
Assay: Induction of cell cycle arrest in human MCF7 cells assessed as accumulation at G0/G1 phase at IC50 after 48 hrs by propidium iodide staining based Flow cytometric analysis (reference value: 55.71%)
Assay type: functional
Conditions: not given

Compound | Activity [%]
COc1ccc(-c2nc3c(c(-c4ccccc4)nn3-c3ccccc3)c(-c3ccc(N4CCOCC4)cc3)c2C#N)cc1 | 44.38
COc1ccc(C(=O)C=CNc2cc(-c3ccccc3)nn2-c2ccccc2)cc1 | 37.29

Test system: HepG2
Assay: Antiproliferative activity against human HepG2 cells assessed as inhibition of cell growth after 48 hrs by MTT assay
Assay type: functional, cell-based
Conditions: HepG2, 48 h

Compound | IC50 [nM]
c1ccc(-c2ccnc3c2c(-c2ccccc2)nn3-c2ccccc2)cc1 | 3210
COc1ccc(-c2nc3c(c(-c4ccccc4)nn3-c3ccccc3)c(-c3ccc(N4CCOCC4)cc3)c2C#N)cc1 | 8130
COc1ccc(C(=O)C=CNc2cc(-c3ccccc3)nn2-c2ccccc2)cc1 | 2030

Test system: MCF7
Assay: Induction of apoptosis in human MCF7 cells assessed as fold increase in caspase-9 concentration at IC50 by ELISA
Assay type: functional
Conditions: not given

Compound | fold change (FC)
COc1ccc(-c2nc3c(c(-c4ccccc4)nn3-c3ccccc3)c(-c3ccc(N4CCOCC4)cc3)c2C#N)cc1 | 9
COc1ccc(C(=O)C=CNc2cc(-c3ccccc3)nn2-c2ccccc2)cc1 | 9

Target: Cyclin-dependent kinase 4/cyclin D1 (Homo sapiens, UniProt P11802)
Sequence (P11802 whole entry): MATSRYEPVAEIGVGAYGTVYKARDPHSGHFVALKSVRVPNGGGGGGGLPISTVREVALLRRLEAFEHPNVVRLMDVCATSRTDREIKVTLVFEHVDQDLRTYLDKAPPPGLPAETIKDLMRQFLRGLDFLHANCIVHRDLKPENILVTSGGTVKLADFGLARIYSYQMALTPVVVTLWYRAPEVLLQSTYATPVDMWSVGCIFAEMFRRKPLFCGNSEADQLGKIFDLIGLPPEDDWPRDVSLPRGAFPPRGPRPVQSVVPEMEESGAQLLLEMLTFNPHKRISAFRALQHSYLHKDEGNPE
Sequence (P24385 whole entry, further chain): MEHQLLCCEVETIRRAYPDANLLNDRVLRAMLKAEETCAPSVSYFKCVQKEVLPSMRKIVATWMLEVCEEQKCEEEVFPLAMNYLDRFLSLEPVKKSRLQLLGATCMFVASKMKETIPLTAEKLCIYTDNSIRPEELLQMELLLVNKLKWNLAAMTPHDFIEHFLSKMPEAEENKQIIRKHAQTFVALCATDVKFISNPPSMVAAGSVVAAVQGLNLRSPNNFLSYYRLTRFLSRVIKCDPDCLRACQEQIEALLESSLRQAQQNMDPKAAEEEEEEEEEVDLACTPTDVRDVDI
Assay: Inhibition of CDK4/cyclin D1 (unknown origin)
Assay type: protein-complex assay
Conditions: not given

Compound | IC50 [nM] | Ki [nM]
COc1ccc(-c2nc3c(c(-c4ccccc4)nn3-c3ccccc3)c(-c3ccc(N4CCOCC4)cc3)c2C#N)cc1 | 21200 | 11600
COc1ccc(C(=O)C=CNc2cc(-c3ccccc3)nn2-c2ccccc2)cc1 | 16700 | 9120

Test system: MCF7
Assay: Induction of apoptosis in human MCF7 cells assessed as caspase-9 concentration at IC50 by ELISA (reference value: 2.018 +/- 0.14 ng/ml)
Assay type: functional
Conditions: not given

Compound | Activity [ng/mL]
COc1ccc(-c2nc3c(c(-c4ccccc4)nn3-c3ccccc3)c(-c3ccc(N4CCOCC4)cc3)c2C#N)cc1 | 20.32
COc1ccc(C(=O)C=CNc2cc(-c3ccccc3)nn2-c2ccccc2)cc1 | 18.96

Test system: MCF7
Assay: Induction of cell cycle arrest in human MCF7 cells assessed as accumulation at G2/M phase at IC50 after 48 hrs by propidium iodide staining based Flow cytometric analysis (reference value: […]%)
Assay type: functional
Conditions: not given

Compound | Activity [%]
COc1ccc(-c2nc3c(c(-c4ccccc4)nn3-c3ccccc3)c(-c3ccc(N4CCOCC4)cc3)c2C#N)cc1 | 21.2
COc1ccc(C(=O)C=CNc2cc(-c3ccccc3)nn2-c2ccccc2)cc1 | 3.47

Test system: MCF7
Assay: Induction of cell cycle arrest in human MCF7 cells assessed as accumulation at S phase at IC50 after 48 hrs by propidium iodide staining based Flow cytometric analysis (reference value: 39.15%)
Assay type: functional
Conditions: not given

Compound | Activity [%]
COc1ccc(-c2nc3c(c(-c4ccccc4)nn3-c3ccccc3)c(-c3ccc(N4CCOCC4)cc3)c2C#N)cc1 | 34.42
COc1ccc(C(=O)C=CNc2cc(-c3ccccc3)nn2-c2ccccc2)cc1 | 59.24

Target: CDK2/Cyclin A2 (Homo sapiens, UniProt P24941)
Assay: Inhibition of CDK2/Cyclin A2 (unknown origin) after 10 mins by ADP-Glo reagent based assay
Assay type: protein-complex assay
Conditions: not given

Compound | IC50 [nM] | Ki [nM]
c1ccc(-c2ccnc3c2c(-c2ccccc2)nn3-c2ccccc2)cc1 | 348 | –
COc1ccc(-c2nc3c(c(-c4ccccc4)nn3-c3ccccc3)c(-c3ccc(N4CCOCC4)cc3)c2C#N)cc1 | 221 | 131
COc1ccc(C(=O)C=CNc2cc(-c3ccccc3)nn2-c2ccccc2)cc1 | 42 | 25
